Data taken from patent publication US20110009403A1, “2-MORPHOLINYLPURINES AS INHIBITORS OF PI3K” (S*BIO Pte Ltd., priority 2007, published 2011).

How the values were obtained:
PI3K p110α/p85 = molecular target: T1, PI3K p110α/p85 (Homo sapiens, UniProt P42336); assay: PI3K assay ([γ33P]ATP, PtdIns/PtdSer coated plates); format: biochemical; settings: 2 μM ATP, 1 hour at RT; read-out: IC50 (PI3Kα)
T1 construct: made in house
Protocol: Recombinant PI3K p110α/p85 was prepared in-house. Phosphatidylinositol (PtdIns), phosphotidylserine (PtdSer) and all other unspecified chemicals were purchased from Sigma-Aldrich. [γ^33P]ATP and Optiphase scintillant were obtained from Perkin Elmer.
Assays were performed in a final assay volume of 25 μL in 384-well Maxisorp plates (Nunc). Compounds were tested at 8 concentrations in 3-fold serial dilution, generally starting from 10 μM. Maxisorp plates were coated with 20 μL/well of a 1:1 mixture of PtdIns and PtdSer [0.1 mg/mL each dissolved in chloroform:ethanol (3:7)] and left overnight in a fume hood at room temperature (RT) to dry.
The enzyme reaction was created by pipetting 5 μL/well of compound (in 2.5% DMSO), 10 μL/well of enzyme (0.5 μg/mL p110α+1 μg/mL p85), and 10 μL/well of 5 μM ATP with 5 μCi/mL [γ^33P]ATP in assay buffer (final concentrations: 0.2 μg/mL p110α, 2 μM ATP, […] [γ^33P]ATP in 1× assay buffer: 100 mM Tris-HCl pH 7.0, 200 mM NaCl, 8 mM MgCl2). The reaction was incubated for 1 hour at RT and terminated with 30 μL/well of 50 mM EDTA solution. The plate was then washed twice with TBS, dried, and added with 30 μL/well of scintillant before it was counted in a MicroBeta Trilux.

mTOR = mTOR (Homo sapiens, UniProt P42345); assay: mTOR assay (phosphorylation of 4eBP1, [γ33P]-ATP filter plate); format: biochemical; settings: 10 μM ATP, 1 hour at room temperature
Protocol: Truncated mTOR kinase and His-tagged 4eBP1 were produced in-house. [γ^33P]-ATP was purchased from Amersham (GE Healthcare). All chemicals, unless otherwise stated, were from Sigma-Aldrich.
Phosphorylation assays were initially performed in a final volume of 20 μL in 384-well polypropylene plate (Greiner). Compounds were typically tested over the range from 100 μM to 0.006 μM, in 8 step dilutions, in duplicate. 10 μL/well of 2× Enzyme-Substrate solution (1.5 μg/mL mTOR, 40 μg/mL 4eBP1 in 1× assay buffer: 10 mM Hepes pH 7.5, 50 mM NaCl and 10 mM MnCl2) were first added to the sample plate containing 1 μL/well of test compound in neat DMSO. The reaction was initiated by adding 10 μL/well of 20 μM ATP solution (final assay concentration 10 μM ATP and 0.4 μCi/well of [γ^33P]-ATP). After 1 hour incubation at room temperature, the reaction was terminated with 40 μL/well of 20 mM EDTA/1 mM ATP solution.
50 μL/well of the stopped reaction mix was then transferred to 384-well MultiScreenHTS-PH filter plate (Millipore) pre-added with 50 μL/well of 1% phosphoric acid. The plate was washed 4 times with 120 μL/well of 0.5% phosphoric acid via vacuum filtration. Finally, 10 μL/well of Optiphase™ SuperMix liquid scintillation cocktail (Perkin Elmer) was added. After minimum 1 hour of incubation, counting was performed in a Wallac MicroBeta TriLux scintillation counter using coincidence counting mode with crosstalk correction.

T1 sequence (P42336 whole entry): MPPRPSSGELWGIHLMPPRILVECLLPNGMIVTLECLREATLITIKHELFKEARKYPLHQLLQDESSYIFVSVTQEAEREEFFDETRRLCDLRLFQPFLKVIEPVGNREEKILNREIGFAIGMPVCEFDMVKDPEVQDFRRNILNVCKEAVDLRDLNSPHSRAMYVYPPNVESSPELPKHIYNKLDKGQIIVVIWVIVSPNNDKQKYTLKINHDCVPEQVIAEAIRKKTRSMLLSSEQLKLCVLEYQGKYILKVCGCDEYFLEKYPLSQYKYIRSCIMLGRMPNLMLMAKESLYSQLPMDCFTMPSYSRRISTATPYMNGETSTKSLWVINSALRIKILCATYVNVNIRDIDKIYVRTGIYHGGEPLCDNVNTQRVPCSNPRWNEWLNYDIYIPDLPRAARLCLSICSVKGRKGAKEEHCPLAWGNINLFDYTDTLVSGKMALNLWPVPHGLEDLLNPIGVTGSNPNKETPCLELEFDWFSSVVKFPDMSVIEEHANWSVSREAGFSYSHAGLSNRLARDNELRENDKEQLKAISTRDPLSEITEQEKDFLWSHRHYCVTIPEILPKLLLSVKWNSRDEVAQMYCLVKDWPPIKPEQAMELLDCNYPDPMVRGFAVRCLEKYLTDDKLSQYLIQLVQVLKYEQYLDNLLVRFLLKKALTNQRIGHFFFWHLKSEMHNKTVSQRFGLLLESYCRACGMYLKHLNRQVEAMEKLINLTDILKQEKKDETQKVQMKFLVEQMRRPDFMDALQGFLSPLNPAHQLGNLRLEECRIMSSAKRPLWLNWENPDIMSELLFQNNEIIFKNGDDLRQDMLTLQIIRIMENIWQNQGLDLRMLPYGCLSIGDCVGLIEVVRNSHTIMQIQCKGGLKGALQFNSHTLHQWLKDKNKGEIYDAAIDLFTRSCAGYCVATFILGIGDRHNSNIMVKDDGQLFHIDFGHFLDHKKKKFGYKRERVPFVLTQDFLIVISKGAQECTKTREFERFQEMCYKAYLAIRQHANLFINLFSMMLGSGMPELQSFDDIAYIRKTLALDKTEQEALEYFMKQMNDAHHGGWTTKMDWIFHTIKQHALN
T1 sequence (P27986 whole entry partner): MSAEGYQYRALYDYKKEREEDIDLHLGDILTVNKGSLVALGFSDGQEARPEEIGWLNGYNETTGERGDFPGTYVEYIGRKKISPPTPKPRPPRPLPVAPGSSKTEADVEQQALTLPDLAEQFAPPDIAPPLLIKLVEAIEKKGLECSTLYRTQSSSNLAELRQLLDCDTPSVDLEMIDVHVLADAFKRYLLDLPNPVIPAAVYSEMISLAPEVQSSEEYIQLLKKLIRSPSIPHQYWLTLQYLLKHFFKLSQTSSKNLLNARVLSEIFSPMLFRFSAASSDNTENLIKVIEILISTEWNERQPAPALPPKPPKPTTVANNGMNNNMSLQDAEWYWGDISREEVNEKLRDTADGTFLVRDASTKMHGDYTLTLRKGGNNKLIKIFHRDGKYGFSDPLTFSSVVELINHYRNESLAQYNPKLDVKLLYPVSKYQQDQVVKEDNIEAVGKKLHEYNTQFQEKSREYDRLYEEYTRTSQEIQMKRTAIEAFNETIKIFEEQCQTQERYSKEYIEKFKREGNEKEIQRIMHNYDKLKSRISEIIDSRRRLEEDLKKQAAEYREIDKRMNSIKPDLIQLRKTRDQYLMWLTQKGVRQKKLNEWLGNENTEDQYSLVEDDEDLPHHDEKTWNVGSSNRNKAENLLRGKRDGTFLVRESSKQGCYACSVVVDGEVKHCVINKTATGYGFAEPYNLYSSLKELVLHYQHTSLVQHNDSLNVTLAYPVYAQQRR
Sequence of mTOR (P42345 1382-2549 limits assumed): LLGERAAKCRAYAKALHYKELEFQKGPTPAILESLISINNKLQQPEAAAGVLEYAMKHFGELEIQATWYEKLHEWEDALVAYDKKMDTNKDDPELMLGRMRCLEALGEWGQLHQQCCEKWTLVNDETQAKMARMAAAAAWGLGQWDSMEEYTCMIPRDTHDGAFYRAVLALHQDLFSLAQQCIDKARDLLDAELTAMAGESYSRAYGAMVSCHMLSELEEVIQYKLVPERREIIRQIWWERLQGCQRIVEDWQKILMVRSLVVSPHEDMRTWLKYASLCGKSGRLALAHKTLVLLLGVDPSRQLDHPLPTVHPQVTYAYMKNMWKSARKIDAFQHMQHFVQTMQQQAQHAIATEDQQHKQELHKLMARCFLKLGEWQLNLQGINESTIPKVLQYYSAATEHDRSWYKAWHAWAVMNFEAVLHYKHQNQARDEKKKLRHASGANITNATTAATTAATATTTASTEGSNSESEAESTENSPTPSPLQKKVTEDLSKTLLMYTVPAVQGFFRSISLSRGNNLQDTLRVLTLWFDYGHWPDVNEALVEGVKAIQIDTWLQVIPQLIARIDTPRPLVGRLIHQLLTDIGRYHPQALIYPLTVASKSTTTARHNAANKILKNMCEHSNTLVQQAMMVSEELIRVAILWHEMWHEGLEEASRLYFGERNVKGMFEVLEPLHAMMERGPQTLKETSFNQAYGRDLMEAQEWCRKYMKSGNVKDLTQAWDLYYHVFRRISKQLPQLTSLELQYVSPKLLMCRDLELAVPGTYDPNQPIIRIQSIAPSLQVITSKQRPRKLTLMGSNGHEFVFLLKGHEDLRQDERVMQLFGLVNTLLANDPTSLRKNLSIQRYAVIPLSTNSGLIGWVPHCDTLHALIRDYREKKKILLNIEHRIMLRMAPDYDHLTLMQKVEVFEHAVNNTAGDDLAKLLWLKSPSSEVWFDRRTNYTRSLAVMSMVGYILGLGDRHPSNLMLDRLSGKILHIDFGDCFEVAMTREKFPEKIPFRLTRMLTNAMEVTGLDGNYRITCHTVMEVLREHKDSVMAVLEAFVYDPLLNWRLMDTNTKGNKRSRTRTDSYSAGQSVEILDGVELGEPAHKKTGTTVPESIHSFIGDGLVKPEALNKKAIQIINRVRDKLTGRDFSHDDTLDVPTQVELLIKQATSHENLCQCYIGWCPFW

| SMILES | IC50 (PI3K p110α/p85) [nM] | IC50 (mTOR) [nM] |
| --- | --- | --- |
| c1nc2cc(-c3nc(N4CCOCC4)nc4c3ncn4CC3CC3)ccc2[nH]1 [Compound 59] | < 1000 | 1000 to 5000 |
| CC(C)(C)OC(=O)N1CCC(n2cnc3c(-c4cccc5[nH]ccc45)nc(N4CCOCC4)nc32)C1 (centres unmarked) [Compound 62] | < 1000 | 1000 to 5000 |
| c1cc2[nH]nnc2cc1-c1nc(N2CCOCC2)nc2c1ncn2CC1CC1 [Compound 64] | 1000 to 5000 | > 5000 |
| O=c1[nH]c2ccc(-c3nc(N4CCOCC4)nc4c3ncn4CC3CC3)cc2[nH]1 [Compound 65] | > 5000 | > 5000 |
| CC(C)Cn1cnc2c(-c3cccc4[nH]ccc34)nc(N3CCOCC3)nc21 [Compound 66] | < 1000 | < 1000 |
| COCC(C)n1cnc2c(-c3cccc4[nH]ccc34)nc(N3CCOCC3)nc21 (centres unmarked) [Compound 67] | < 1000 | < 1000 |
| CCC(C)n1cnc2c(-c3cccc4[nH]ccc34)nc(N3CCOCC3)nc21 (centres unmarked) [Compound 69] | < 1000 | < 1000 |
| c1cc(-c2nc(N3CCOCC3)nc3c2ncn3CCC2OCCCO2)c2cc[nH]c2c1 [Compound 70] | < 1000 | 1000 to 5000 |
| CC(c1ccccc1)n1cnc2c(-c3cccc4[nH]ccc34)nc(N3CCOCC3)nc21 (centres unmarked) [Compound 77] | > 5000 | < 1000 |
| COCCn1cnc2c(-c3cccc4[nH]ccc34)nc(N3CCOCC3)nc21 [Compound 79] | < 1000 | 1000 to 5000 |
| N#CCn1cnc2c(-c3cccc4[nH]ccc34)nc(N3CCOCC3)nc21 [Compound 80] | < 1000 | 1000 to 5000 |
| CC1CN(c2nc(-c3cccc4[nH]ccc34)c3ncn(CC#N)c3n2)CC(C)O1 (centres unmarked) [Compound 81] | > 5000 | > 5000 |
| c1cc(-c2nc(N3CCOCC3)nc3c2ncn3C2CCNCC2)c2cc[nH]c2c1 [Compound 87] | < 1000 | 1000 to 5000 |
| CC(C1CC1)n1cnc2c(-c3cccc4[nH]ccc34)nc(N3CCOCC3)nc21 (centres unmarked) [Compound 91] | < 1000 | < 1000 |
| CCCC(=O)N1CCC(n2cnc3c(-c4cccc5[nH]ccc45)nc(N4CCOCC4)nc32)CC1 [Compound 93] | < 1000 | < 1000 |
| O=C(CCN1CCCCC1)N1CCC(n2cnc3c(-c4cccc5[nH]ccc45)nc(N4CCOCC4)nc32)CC1 [Compound 95] | < 1000 | < 1000 |
| CC(C)(C)CC(=O)N1CCC(n2cnc3c(-c4cccc5[nH]ccc45)nc(N4CCOCC4)nc32)CC1 [Compound 96] | < 1000 | < 1000 |
| CC(C)n1cnc2c(-c3cccc4[nH]ccc34)nc(N3CCOCC3)nc21 [Compound 99] | < 1000 | < 1000 |
| CCC(C#N)n1cnc2c(-c3cccc4[nH]ccc34)nc(N3CCOCC3)nc21 (centres unmarked) [Compound 102] | < 1000 | 1000 to 5000 |
| Cc1ccc(C(=O)N2CCC(n3cnc4c(-c5cccc6[nH]ccc56)nc(N5CCOCC5)nc43)CC2)s1 [Compound 104] | < 1000 | < 1000 |
| O=C(Cc1cccnc1)N1CCC(n2cnc3c(-c4cccc5[nH]ccc45)nc(N4CCOCC4)nc32)CC1 [Compound 105] | < 1000 | < 1000 |
| O=C(Nc1ccc(Cl)cc1)N1CCC(n2cnc3c(-c4cccc5[nH]ccc45)nc(N4CCOCC4)nc32)CC1 [Compound 106] | < 1000 | < 1000 |
| CS(=O)(=O)N1CCN(C(=O)Cn2cnc3c(-c4cccc(O)c4)nc(N4CCOCC4)nc32)CC1 [Compound 107] | < 1000 | < 1000 |
| CCC(C)n1cnc2c(-c3cccc4[nH]ncc34)nc(N3CCOCC3)nc21 (centres unmarked) [Compound 109] | < 1000 | < 1000 |
| c1cc(-c2nc(N3CCOCC3)nc3c2ncn3C2CCOC2)c2cc[nH]c2c1 (centres unmarked) [Compound 110] | < 1000 | < 1000 |
| CS(=O)(=O)N1CCC(n2cnc3c(-c4cccc5[nH]ccc45)nc(N4CCOCC4)nc32)CC1 [Compound 111] | < 1000 | < 1000 |

Second part, the molecule after the results:

| IC50 (PI3K p110α/p85) [nM] | IC50 (mTOR) [nM] | SMILES |
| --- | --- | --- |
| < 1000 | < 1000 | CC(C)Cn1cnc2c(-c3cccc(O)c3)nc(N3CCOCC3)nc21 [Compound 60] |
| < 1000 | < 1000 | CC1CCC(n2cnc3c(-c4cccc(O)c4)nc(N4CCOCC4)nc32)CC1 (centres unmarked) [Compound 61] |
| < 1000 | < 1000 | COCC(C)n1cnc2c(-c3cccc(O)c3)nc(N3CCOCC3)nc21 (centres unmarked) [Compound 68] |
| 1000 to 5000 | < 1000 | Oc1cccc(-c2nc(N3CCOCC3)nc3c2ncn3CC2CCCCC2)c1 [Compound 72] |
| < 1000 | 1000 to 5000 | c1cc(-c2nc(N3CCOCC3)nc3c2ncn3CC2CCCCC2)c2cc[nH]c2c1 [Compound 73] |
| < 1000 | < 1000 | O=C(Cn1cnc2c(-c3cccc(O)c3)nc(N3CCOCC3)nc21)N1CCCC1 [Compound 75, 2-(6-(3-hydroxyphenyl)-2-morpholino-9H-purin-9-yl)-1-(pyrrolidin-1-yl)ethanone] |
| < 1000 | 1000 to 5000 | CN1CCN(C(=O)Cn2cnc3c(-c4cccc(O)c4)nc(N4CCOCC4)nc32)CC1 [Compound 76] |
| < 1000 | 1000 to 5000 | O=C(Cn1cnc2c(-c3cccc(O)c3)nc(N3CCOCC3)nc21)N1CCOCC1 [Compound 82] |
| < 1000 | 1000 to 5000 | CC(C)NC(=O)Cn1cnc2c(-c3cccc(O)c3)nc(N3CCOCC3)nc21 [Compound 83] |
| < 1000 | 1000 to 5000 | O=C(Cn1cnc2c(-c3cccc(O)c3)nc(N3CCOCC3)nc21)NC1CC1 [Compound 84] |
| < 1000 | < 1000 | CCCCN1CCC(n2cnc3c(-c4cccc(O)c4)nc(N4CCOCC4)nc32)CC1 [Compound 88] |
| < 1000 | < 1000 | O=C(Cn1cnc2c(-c3cccc(O)c3)nc(N3CCOCC3)nc21)Nc1ccccc1 [Compound 89] |
| < 1000 | < 1000 | CCC(C)n1cnc2c(-c3cccc(O)c3)nc(N3CCOCC3)nc21 (centres unmarked) [Compound 90] |
| < 1000 | < 1000 | CC(C1CC1)n1cnc2c(-c3cccc(O)c3)nc(N3CCOCC3)nc21 (centres unmarked) [Compound 92] |
| < 1000 | 1000 to 5000 | Oc1cccc(-c2nc(N3CCOCC3)nc3c2ncn3CCN2CCCC2)c1 [Compound 94, 3-(2-morpholino-9-(2(-pyrrolidin-1-yl)ethyl)-9H-purin-6yl)phenol] |
| < 1000 | < 1000 | Oc1cccc(-c2nc(N3CCOCC3)nc3c2ncn3C2CCOC2)c1 (centres unmarked) [Compound 97] |
| < 1000 | > 5000 | CCN(CC)CCn1cnc2c(-c3cccc(O)c3)nc(N3CCOCC3)nc21 [Compound 98] |
| < 1000 | < 1000 | CS(=O)(=O)N1CCN(CCn2cnc3c(-c4cccc(O)c4)nc(N4CCOCC4)nc32)CC1 [Compound 108] |
| < 1000 | < 1000 | CCc1nc2c(-c3cccc(O)c3)nc(N3CCOCC3)nc2n1C(C)CC (centres unmarked) [Compound 112, 3-(9-sec-Butyl-8-ethyl-2-morpholin-4-yl-9H-purin-6-yl)-phenol] |
| < 1000 | < 1000 | CCC(C)n1c(C)nc2c(-c3cccc(O)c3)nc(N3CCOCC3)nc21 (centres unmarked) [Compound 113] |
| < 1000 | < 1000 | CCC(C)n1c(Br)nc2c(-c3cccc(O)c3)nc(N3CCOCC3)nc21 (centres unmarked) [Compound 114] |
| > 5000 | > 5000 | Oc1cccc(-c2nc(N3CCOCC3)nc3c2nc(-c2cccs2)n3C2CCCCO2)c1 (centres unmarked) [Compound 116] |
| < 1000 | > 5000 | Oc1cccc(-c2nc(N3CCOCC3)nc3[nH]c(-c4cccs4)nc23)c1 [Compound 117] |
| < 1000 | < 1000 | CCSc1nc2c(-c3cccc(O)c3)nc(N3CCOCC3)nc2n1C(C)CC (centres unmarked) [Compound 119] |
| < 1000 | < 1000 | CCCCNc1nc2c(-c3cccc(O)c3)nc(N3CCOCC3)nc2n1C(C)CC (centres unmarked) [Compound 120] |
| < 1000 | < 1000 | CCC(C)n1c(N(C)C)nc2c(-c3cccc(O)c3)nc(N3CCOCC3)nc21 (centres unmarked) [Compound 121] |
